Measured values from US20070037883A1, “Therapeutic compositions” (priority 2003, published 2007).
Entries after “also recorded” stand apart in the source; their conditions may differ.

Experiments:
[1] = biological target: T1, Nox4-containing NADPH-oxidase in mouse endothelium (Mus musculus, UniProt Q9JHI8); test: NADPH-driven NADPH-oxidase activity in mouse endothelium; format: cell-based; conditions: suramin ≦100 μM
T1 construct: Nox4-containing NADPH-oxidase in mouse vascular smooth muscle cells (VSMC, a) and endothelium; endogenous in cells; host or cells: mouse endothelium (preparation not described)
T1 sequence (Q9JHI8 1-578): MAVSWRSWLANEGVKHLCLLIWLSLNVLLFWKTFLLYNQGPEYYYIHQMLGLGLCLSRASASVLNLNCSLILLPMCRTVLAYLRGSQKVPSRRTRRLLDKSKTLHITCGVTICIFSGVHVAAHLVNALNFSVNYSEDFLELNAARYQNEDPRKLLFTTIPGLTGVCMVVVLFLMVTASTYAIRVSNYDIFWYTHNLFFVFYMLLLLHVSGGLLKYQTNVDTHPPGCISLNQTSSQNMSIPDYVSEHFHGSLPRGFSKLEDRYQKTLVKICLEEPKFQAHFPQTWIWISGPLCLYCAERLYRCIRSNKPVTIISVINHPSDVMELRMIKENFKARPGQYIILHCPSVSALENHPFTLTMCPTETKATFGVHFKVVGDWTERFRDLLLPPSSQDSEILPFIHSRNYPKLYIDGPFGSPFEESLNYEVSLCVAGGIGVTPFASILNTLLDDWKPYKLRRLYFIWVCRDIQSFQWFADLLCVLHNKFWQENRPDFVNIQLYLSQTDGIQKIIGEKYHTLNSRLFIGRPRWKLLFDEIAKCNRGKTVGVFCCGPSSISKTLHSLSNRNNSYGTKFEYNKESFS
T1 sequence (Q61462 1-192 partner): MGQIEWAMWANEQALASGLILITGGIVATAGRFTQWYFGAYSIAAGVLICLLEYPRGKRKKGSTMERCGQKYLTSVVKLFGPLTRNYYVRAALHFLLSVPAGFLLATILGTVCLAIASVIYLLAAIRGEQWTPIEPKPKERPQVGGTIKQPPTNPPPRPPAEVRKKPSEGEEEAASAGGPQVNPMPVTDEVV

[2] = system: cerebral artery NADPH-oxidase activity; test: NADPH-induced superoxide production by the rat basilar artery in vitro after subarachnoid haemorrhage, chronic in vivo treatment; parameters: species or system Sprague-Dawley rats; conditions: FIG. 13
Method: (§1) Subarachnoid hemorrhage: On Day 0, rats are briefly anaesthetized (pentobarbital 50 mg/kg ip) and an osmotic minipump containing either saline or suramin is implanted subcutaneously. The dose rate of suramin is 300 mg/kg per 7 days. On Day 5, rats are again anaesthetized and 0.3 ml of blood is withdrawn from a femoral artery and injected into the cerebrospinal fluid around the ventral surface of the brain via the cisterna magna. In some control rats, saline is injected into the cerebrospinal fluid instead of arterial blood. The rat is allowed to recover for a further 2 days, and is then again anaesthetized on Day 7 for study.
On Day 0, rats were briefly anaesthetized and an osmotic minipump containing either saline or suramin was implanted subcutaneously. The dose rate of suramin was 30 or 300 mg/kg per 7 days. On Day 5, rats were again anaesthetized and 0.3 ml of blood was withdrawn from a femoral artery and injected into the cerebrospinal fluid around the ventral surface of the brain via the cisterna magna. In some rats, saline was injected into the cerebrospinal fluid instead of arterial blood. […]
The brain was removed and the basilar artery was isolated and then incubated with 5 micromolar lucigenin, 100 micromolar NADPH and 3 millimolar diethyldithiocarbamate. Superoxide production was measured using lucigenin-enhanced chemiluminescence.

[3] = system: rat basilar artery; test: Acetylcholine-induced dilator responses of the rat basilar artery in vivo after subarachnoid haemorrhage; conditions: suramin 300 mg/kg s.c. over 7 days, 2 days after SAH, FIG. 14
Method: as §1
Measurement of cerebral artery responses in vivo: Rats are anaesthetized with pentbarbital (50 mg/kg ip) and anaesthesia is maintained with supplemental pentobarbital (10-20 mg/kg per h iv). […] Basilar artery diameter is continuously measured using a computer-based image tracking device. The endothelium-dependent vasodilator acetylcholine is superfused over the basilar artery at a steady concentration of 1 micromolar for 3-5 minutes, and the increase in diameter is measured. The concentration of acetylcholine is then increased to 10, and then 100 micromolar in a similar manner and increases in diameter recorded. […] Responses to acetylcholine are then expressed as a percent of this maximum response. […]

Cc1ccc(C(=O)Nc2ccc(S(=O)(=O)O)c3cc(S(=O)(=O)O)cc(S(=O)(=O)O)c23)cc1NC(=O)c1cccc(NC(=O)Nc2cccc(C(=O)Nc3cc(C(=O)Nc4ccc(S(=O)(=O)O)c5cc(S(=O)(=O)O)cc(S(=O)(=O)O)c45)ccc3C)c2)c1 [suramin]
inhibition of 100 μM NADPH-driven activity of Nox4-containing NADPH-oxidase in endothelium [1]: fully inhibits | NADPH (100 μM)-driven superoxide production by isolated basilar artery, control rats ([2]; suramin 30-300 mg/kg over 7 days, control rats without SAH): no effect | NADPH-driven superoxide production by basilar artery 2 days after SAH ([2]; suramin 30 or 300 mg/kg per 7 days s.c. minipump, rats subjected to SAH): not different from levels measured in non-operated control rats; also recorded: prevents the increase | response of basilar artery diameter to acetylcholine in vivo after SAH [3]: not impaired; also recorded: prevents any significant reduction
